Measured values published in patent publication US20230081426A1, “COMPOUNDS AND METHODS FOR KRAS MODULATION AND INDICATIONS THEREFOR” (Plexxikon Inc., priority 2020, published 2023).

Experiments:
[1] = target: T1, G12D-mutant human KRAS (amino acid residues 1-188) (Homo sapiens, UniProt P01116, G12D); assay: KRAS Binding Disruption Assay (AlphaScreen; biotinylated KRpep-2d analogue or RAF1-RBD), G12D; conditions: KRAS G12D; geometric mean; read-out: KRAS GMean IC50 (uM) MUTATION: G12D
T1 construct: G12D or G12C-mutant human KRAS (amino acid residues 1-188) with FLAG tag; made in house; host or cells: E. coli
Outline: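 Compounds are titrated against 5-20 nM mutant KRAS and 5-20 nM of either a biotinylated KRpep-2d analogue or RAF1-RBD, incubated 1 h at 25° C. Disruption is detected as reduced Alpha signal after 1 h with donor and acceptor beads at 10 μg/mL.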

[2] = target: T2, G12V-mutant human KRAS (amino acid residues 1-188) (Homo sapiens, UniProt P01116, G12V); assay: KRAS Binding Competition Assay (AlphaScreen; biotinylated KRpep-2d analogue), G12V; conditions: geometric mean, read-out: KRAS GMean IC50 (uM) MUTATION: G12V
T2 construct: G12V-mutant human KRAS (amino acid residues 1-188) with FLAG tag was purified from E. coli; made in house; host or cells: E. coli

IC50 [1]	IC50 [2]	Compound
0.0001 to 10 µM	10 to 100 µM	C[C@H]1CCCN1CCc1nc(N2C[C@H]3CC[C@@H](C2)N3)c2ccc(-c3cc(O)cc4ccccc34)c(F)c2n1 [P-0440, 4-(4-((1R,5S)-3,8-diazabicyclo[3.2.1]octan-3-yl)-8-fluoro-2-(2-((S)-2-methylpyrrolidin-1-yl)ethyl)quinazolin-7-yl)naphthalen-2-ol]
0.0001 to 10 µM	10 to 100 µM	CN1CCC[C@H]1COc1nc(N2[C@@H]3CC[C@H]2CN(CC(O)CN2CCOCC2)C3)c2ccc(-c3cc(O)cc4ccccc34)cc2n1 (stereo partly drawn) [P-0346, 4-(4-((1R,5S)-3-(2-hydroxy-3-morpholinopropyl)-3,8-diazabicyclo[3.2.1]octan-8-yl)-2-(((S)-1-methylpyrrolidin-2-yl)methoxy)quinazolin-7-yl)naphthalen-2-ol]
0.0001 to 10 µM	0.0001 to 10 µM	CN1CCC[C@H]1COc1nc(N2C[C@H]3CC[C@@H](C2)N3C(=O)CC2SC(=O)NC2=O)c2cc(Cl)c(-c3cc(O)cc4ccccc34)c(F)c2n1 (stereo partly drawn) [P-0447, 5-(2-((1R,5S)-3-(6-chloro-8-fluoro-7-(3-hydroxynaphthalen-1-yl)-2-(((S)-1-methylpyrrolidin-2-yl)methoxy)quinazolin-4-yl)-3,8-diazabicyclo[3.2.1]octan-8-yl)-2-oxoethyl)thiazolidine-2,4-dione]
100 to 1000 µM	100 to 1000 µM	CN1CCC[C@H]1COc1nc(N2C[C@H]3CC[C@@H](C2)N3)c2ccc(-c3cnn4ccccc34)cc2n1 [P-0178, 4-((1R,5S)-3,8-diazabicyclo[3.2.1]octan-3-yl)-2-(((S)-1-methylpyrrolidin-2-yl)methoxy)-7-(pyrazolo[1,5-a]pyridin-3-yl)quinazoline]
0.0001 to 10 µM	100 to 1000 µM	CN1CCC[C@H]1COc1nc(N2C[C@H]3CC[C@@H](C2)N3)c2ccc(-c3cccc4ccccc34)cc2n1 [P-0337, 4-((1R,5S)-3,8-diazabicyclo[3.2.1]octan-3-yl)-2-(((S)-1-methylpyrrolidin-2-yl)methoxy)-7-(naphthalen-1-yl)quinazoline]
0.0001 to 10 µM	0.0001 to 10 µM	CN1CCC[C@H]1COc1nc(N2C[C@H]3CC[C@@H](C2)N3C(=O)c2n[nH]c(=O)[nH]2)c2ccc(-c3cc(O)cc4ccccc34)c(F)c2n1 [P-0107, 5-((1R,5S)-3-(8-fluoro-7-(3-hydroxynaphthalen-1-yl)-2-(((S)-1-methylpyrrolidin-2-yl)methoxy)quinazolin-4-yl)-3,8-diazabicyclo[3.2.1]octane-8-carbonyl)-2,4-dihydro-3H-1,2,4-triazol-3-one]
10 to 100 µM	0.0001 to 10 µM	CN1CCC[C@H]1COc1nc(N2[C@@H]3CC[C@H]2CN(C(=O)c2ncc[nH]2)C3)c2ccc(-c3cc(O)cc4ccccc34)cc2n1 [P-0224, ((1R,5S)-8-(7-(3-hydroxynaphthalen-1-yl)-2-(((S)-1-methylpyrrolidin-2-yl)methoxy)quinazolin-4-yl)-3,8-diazabicyclo[3.2.1]octan-3-yl)(1H-imidazol-2-yl)methanone]
10 to 100 µM	10 to 100 µM	COc1cccc(F)c1-c1c(Cl)cc2c(N3C[C@H]4CC[C@@H](C3)N4)nc(Oc3cccc4c3CN(C)CC4)nc2c1F [P-0335, 4-((1R,5S)-3,8-diazabicyclo[3.2.1]octan-3-yl)-6-chloro-8-fluoro-7-(2-fluoro-6-methoxyphenyl)-2-((2-methyl-1,2,3,4-tetrahydroisoquinolin-8-yl)oxy)quinazoline]
100 to 1000 µM	100 to 1000 µM	CN1CCC[C@H]1COc1nc(N2C[C@H]3CC[C@@H](C2)N3)c2ccc(-c3cccc4[nH]ncc34)cc2n1 [P-0171, 4-((1R,5S)-3,8-diazabicyclo[3.2.1]octan-3-yl)-7-(1H-indazol-4-yl)-2-(((S)-1-methylpyrrolidin-2-yl)methoxy)quinazoline]
0.0001 to 10 µM	10 to 100 µM	CN1CCC[C@H]1COc1nc(N2C[C@H]3CC[C@@H](C2)N3)c2cc(F)c(-c3c[nH]c4ccccc34)c(F)c2n1 [P-0308, 4-((1R,5S)-3,8-diazabicyclo[3.2.1]octan-3-yl)-6,8-difluoro-7-(1H-indol-3-yl)-2-(((S)-1-methylpyrrolidin-2-yl)methoxy)quinazoline]
10 to 100 µM	100 to 1000 µM	CN1CCC[C@H]1COc1nc(N2C[C@H]3CC[C@@H](C2)N3)c2ccc(-c3cnc(N)nc3C(F)(F)F)cc2n1 [P-0180, 5-(4-((1R,5S)-3,8-diazabicyclo[3.2.1]octan-3-yl)-2-(((S)-1-methylpyrrolidin-2-yl)methoxy)quinazolin-7-yl)-4-(trifluoromethyl)pyrimidin-2-amine]
0.0001 to 10 µM	10 to 100 µM	O=[N+]([O-])c1ccc(COc2nc(N3C[C@H]4CC[C@@H](C3)N4)c3cc(Cl)c(-c4c(O)cccc4F)c(F)c3n2)cc1 [P-0389, 2-(4-((1R,5S)-3,8-diazabicyclo[3.2.1]octan-3-yl)-6-chloro-8-fluoro-2-((4-nitrobenzyl)oxy)quinazolin-7-yl)-3-fluorophenol]
0.0001 to 10 µM	0.0001 to 10 µM	N#CCC(=O)N1[C@@H]2CC[C@H]1CN(c1nc(OCC34CCCN3CCC4)nc3c(F)c(-c4cc(O)cc5ccccc45)c(Cl)cc13)C2 [P-0461, 3-((1R,5S)-3-(6-chloro-8-fluoro-7-(3-hydroxynaphthalen-1-yl)-2-((tetrahydro-1H-pyrrolizin-7a(5H)-yl)methoxy)quinazolin-4-yl)-3,8-diazabicyclo[3.2.1]octan-8-yl)-3-oxopropanenitrile]
0.0001 to 10 µM	0.0001 to 10 µM	Cc1cccc2cc(O)cc(-c3c(F)cc4c(N5C[C@H]6CC[C@@H](C5)N6)nc(OC[C@@H]5CCCN5C)nc4c3F)c12 [P-0087, 4-(4-((1R,5S)-3,8-diazabicyclo[3.2.1]octan-3-yl)-6,8-difluoro-2-(((S)-1-methylpyrrolidin-2-yl)methoxy)quinazolin-7-yl)-5-methylnaphthalen-2-ol]
10 to 100 µM	10 to 100 µM	CN1CCC[C@H]1COc1nc(N2[C@@H]3CC[C@H]2CN(C(=O)CC2CCNCC2)C3)c2ccc(-c3cc(O)cc4ccccc34)cc2n1 [P-0189, 1-((1R,5S)-8-(7-(3-hydroxynaphthalen-1-yl)-2-(((S)-1-methylpyrrolidin-2-yl)methoxy)quinazolin-4-yl)-3,8-diazabicyclo[3.2.1]octan-3-yl)-2-(piperidin-4-yl)ethan-1-one]
10 to 100 µM	100 to 1000 µM	CN1CCC[C@H]1COc1nc(N2C[C@H]3CC[C@@H](C2)N3)c2ccc(-c3c[nH]c4ccc(Cl)cc34)cc2n1 [P-0253, 4-((1R,5S)-3,8-diazabicyclo[3.2.1]octan-3-yl)-7-(5-chloro-1H-indol-3-yl)-2-(((S)-1-methylpyrrolidin-2-yl)methoxy)quinazoline]
0.0001 to 10 µM	0.0001 to 10 µM	OCC(O)c1nc(N2C[C@H]3CC[C@@H](C2)N3)c2ccc(-c3cc(O)cc4ccccc34)c(F)c2n1 (stereo partly drawn) [P-0459, 1-(4-((1R,5S)-3,8-diazabicyclo[3.2.1]octan-3-yl)-8-fluoro-7-(3-hydroxynaphthalen-1-yl)quinazolin-2-yl)ethane-1,2-diol]
10 to 100 µM	10 to 100 µM	CN1CCN(CCNC(=O)N2C[C@H]3CC[C@@H](C2)N3c2nc(OC[C@@H]3CCCN3C)nc3cc(-c4cc(O)cc5ccccc45)ccc23)CC1 [P-0209, (1R,5S)-8-(7-(3-hydroxynaphthalen-1-yl)-2-(((S)-1-methylpyrrolidin-2-yl)methoxy)quinazolin-4-yl)-N-(2-(4-methylpiperazin-1-yl)ethyl)-3,8-diazabicyclo[3.2.1]octane-3-carboxamide]
10 to 100 µM	10 to 100 µM	CN1CCC[C@H]1COc1nc(N2[C@@H]3CC[C@H]2CN(C(=O)[C@@H](N)CO)C3)c2ccc(-c3cc(O)cc4ccccc34)cc2n1 [P-0223, (S)-2-amino-3-hydroxy-1-((1R,5S)-8-(7-(3-hydroxynaphthalen-1-yl)-2-(((S)-1-methylpyrrolidin-2-yl)methoxy)quinazolin-4-yl)-3,8-diazabicyclo[3.2.1]octan-3-yl)propan-1-one]
0.0001 to 10 µM	10 to 100 µM	CN1CCC[C@H]1COc1nc(N2C[C@H]3CC[C@@H](C2)N3)c2ccc(N3CCNc4ccccc43)c(F)c2n1 [P-0306, 4-((1R,5S)-3,8-diazabicyclo[3.2.1]octan-3-yl)-7-(3,4-dihydroquinoxalin-1(2H)-yl)-8-fluoro-2-(((S)-1-methylpyrrolidin-2-yl)methoxy)quinazoline]
0.0001 to 10 µM	10 to 100 µM	O=C(O)CCc1nc(N2[C@@H]3CC[C@H]2CNC3)c2ccc(-c3cc(O)cc4ccccc34)cc2n1 [P-0198, 3-(4-((1R,5S)-3,8-diazabicyclo[3.2.1]octan-8-yl)-7-(3-hydroxynaphthalen-1-yl)quinazolin-2-yl)propanoic acid]
10 to 100 µM	10 to 100 µM	CN1CCC[C@H]1COc1nc(N2[C@@H]3CC[C@H]2CN(CC(=O)N2CC(O)C2)C3)c2ccc(-c3cc(O)cc4ccccc34)cc2n1 [P-0275, 1-(3-hydroxyazetidin-1-yl)-2-((1R,5S)-8-(7-(3-hydroxynaphthalen-1-yl)-2-(((S)-1-methylpyrrolidin-2-yl)methoxy)quinazolin-4-yl)-3,8-diazabicyclo[3.2.1]octan-3-yl)ethan-1-one]
10 to 100 µM	10 to 100 µM	CN1CCC[C@H]1COc1nc(N2[C@@H]3CC[C@H]2CN(C(=O)CCC(N)=O)C3)c2ccc(-c3cc(O)cc4ccccc34)cc2n1 [P-0218, 4-((1R,5S)-8-(7-(3-hydroxynaphthalen-1-yl)-2-(((S)-1-methylpyrrolidin-2-yl)methoxy)quinazolin-4-yl)-3,8-diazabicyclo[3.2.1]octan-3-yl)-4-oxobutanamide]
